In article PMC11314561, “Design and Synthesis of Novel Aminoindazole-pyrrolo[2,3-b]pyridine Inhibitors of IKKα That Selectively Perturb Cellular Non-Canonical NF-κB Signalling” (Molecules, 2024):
One block for each compound: values may come before it.

Legend:
Experiment in all cases: kinase panel
Assay type in all cases: biochemical
[1] = molecular target: NEK6(h) (Homo sapiens, UniProt Q9HC98)
Outline: (§1)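 % inhibition read-out; kinome panel of 231 kinases; one analogue run on a selected 98-kinase subset only.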

[2] = molecular target: TAO3(h) (Homo sapiens, UniProt Q9H2K8)
Outline: as §1

[3] = molecular target: MELK(h) (Homo sapiens, UniProt Q14680)
Outline: as §1

[4] = molecular target: MuSK(h) (Homo sapiens, UniProt O15146)
Outline: as §1

[5] = molecular target: FGFR2(h) (Homo sapiens, UniProt P21802)
Outline: as §1

[6] = molecular target: ALK4(h) (Homo sapiens, UniProt P36896)
Outline: as §1

[7] = molecular target: Pim-3(h) (Homo sapiens, UniProt Q86V86)
Outline: as §1

[8] = molecular target: SAPK2a(h) (Homo sapiens, UniProt Q16539)
Outline: as §1

[9] = molecular target: EphB3(h) (Homo sapiens, UniProt P54753)
Outline: as §1

[10] = molecular target: Hck(h) activated (Homo sapiens, UniProt P08631)
Outline: as §1

[11] = molecular target: SGK2(h) (Homo sapiens, UniProt Q9HBY8)
Outline: as §1

[12] = molecular target: PKCβI(h) (Homo sapiens, UniProt P05771)
Outline: as §1

[13] = molecular target: ASK1(h) (Homo sapiens, UniProt Q99683)
Outline: as §1

[14] = molecular target: PKCζ(h) (Homo sapiens, UniProt Q05513)
Outline: as §1

[15] = molecular target: BrSK2(h) (Homo sapiens, UniProt Q8IWQ3)
Outline: as §1

[16] = molecular target: Tec(h) activated (Homo sapiens, UniProt P42680)
Outline: as §1

[17] = molecular target: BTK(h) (Homo sapiens, UniProt Q06187)
Outline: as §1

[18] = molecular target: Rsk2(h) (Homo sapiens, UniProt P51812)
Outline: as §1

[19] = molecular target: PKCε(h) (Homo sapiens, UniProt Q02156)
Outline: as §1

[20] = molecular target: NEK7(h) (Homo sapiens, UniProt Q8TDX7)
Outline: as §1

[21] = molecular target: mTOR/FKBP12(h) (Homo sapiens, UniProt P42345)
Outline: as §1

[22] = molecular target: CSK(h) (Homo sapiens, UniProt P41240)
Outline: as §1

[23] = molecular target: Snk(h) (Homo sapiens, UniProt Q9NYY3)
Outline: as §1

[24] = molecular target: EphA3(h) (Homo sapiens, UniProt P29320)
Outline: as §1

[25] = molecular target: PASK(h) (Homo sapiens, UniProt Q96RG2)
Outline: as §1

[26] = molecular target: JNK2α2(h) (Homo sapiens, UniProt P45984)
Outline: as §1

[27] = molecular target: HIPK2(h) (Homo sapiens, UniProt Q9H2X6)
Outline: as §1

[28] = molecular target: HIPK3(h) (Homo sapiens, UniProt Q9H422)
Outline: as §1

[29] = molecular target: Rse(h) (Homo sapiens, UniProt Q06418)
Outline: as §1

[30] = molecular target: Ron(h) (Homo sapiens, UniProt Q04912)
Outline: as §1

[31] = molecular target: Txk(h) (Homo sapiens, UniProt P42681)
Outline: as §1

[32] = molecular target: BrSK1(h) (Homo sapiens, UniProt Q8TDC3)
Outline: as §1

[33] = molecular target: CK1γ1(h) (Homo sapiens, UniProt Q9HCP0)
Outline: as §1

[34] = molecular target: Rsk4(h) (Homo sapiens, UniProt Q9UK32)
Outline: as §1

[35] = molecular target: DMPK(h) (Homo sapiens, UniProt Q09013)
Outline: as §1

[36] = molecular target: GRK5(h) (Homo sapiens, UniProt P34947)
Outline: as §1

[37] = molecular target: EphA2(h) (Homo sapiens, UniProt P29317)
Outline: as §1

[38] = molecular target: Blk(h) (Homo sapiens, UniProt P51451)
Outline: as §1

[39] = molecular target: PKCγ(h) (Homo sapiens, UniProt P05129)
Outline: as §1

[40] = molecular target: MLK1(h) (Homo sapiens, UniProt P80192)
Outline: as §1

[41] = molecular target: MRCKα(h) (Homo sapiens, UniProt Q5VT25)
Outline: as §1

[42] = molecular target: Rsk3(h) (Homo sapiens, UniProt Q15349)
Outline: as §1

Chain of MRCKα(h) (Q5VT25 whole entry): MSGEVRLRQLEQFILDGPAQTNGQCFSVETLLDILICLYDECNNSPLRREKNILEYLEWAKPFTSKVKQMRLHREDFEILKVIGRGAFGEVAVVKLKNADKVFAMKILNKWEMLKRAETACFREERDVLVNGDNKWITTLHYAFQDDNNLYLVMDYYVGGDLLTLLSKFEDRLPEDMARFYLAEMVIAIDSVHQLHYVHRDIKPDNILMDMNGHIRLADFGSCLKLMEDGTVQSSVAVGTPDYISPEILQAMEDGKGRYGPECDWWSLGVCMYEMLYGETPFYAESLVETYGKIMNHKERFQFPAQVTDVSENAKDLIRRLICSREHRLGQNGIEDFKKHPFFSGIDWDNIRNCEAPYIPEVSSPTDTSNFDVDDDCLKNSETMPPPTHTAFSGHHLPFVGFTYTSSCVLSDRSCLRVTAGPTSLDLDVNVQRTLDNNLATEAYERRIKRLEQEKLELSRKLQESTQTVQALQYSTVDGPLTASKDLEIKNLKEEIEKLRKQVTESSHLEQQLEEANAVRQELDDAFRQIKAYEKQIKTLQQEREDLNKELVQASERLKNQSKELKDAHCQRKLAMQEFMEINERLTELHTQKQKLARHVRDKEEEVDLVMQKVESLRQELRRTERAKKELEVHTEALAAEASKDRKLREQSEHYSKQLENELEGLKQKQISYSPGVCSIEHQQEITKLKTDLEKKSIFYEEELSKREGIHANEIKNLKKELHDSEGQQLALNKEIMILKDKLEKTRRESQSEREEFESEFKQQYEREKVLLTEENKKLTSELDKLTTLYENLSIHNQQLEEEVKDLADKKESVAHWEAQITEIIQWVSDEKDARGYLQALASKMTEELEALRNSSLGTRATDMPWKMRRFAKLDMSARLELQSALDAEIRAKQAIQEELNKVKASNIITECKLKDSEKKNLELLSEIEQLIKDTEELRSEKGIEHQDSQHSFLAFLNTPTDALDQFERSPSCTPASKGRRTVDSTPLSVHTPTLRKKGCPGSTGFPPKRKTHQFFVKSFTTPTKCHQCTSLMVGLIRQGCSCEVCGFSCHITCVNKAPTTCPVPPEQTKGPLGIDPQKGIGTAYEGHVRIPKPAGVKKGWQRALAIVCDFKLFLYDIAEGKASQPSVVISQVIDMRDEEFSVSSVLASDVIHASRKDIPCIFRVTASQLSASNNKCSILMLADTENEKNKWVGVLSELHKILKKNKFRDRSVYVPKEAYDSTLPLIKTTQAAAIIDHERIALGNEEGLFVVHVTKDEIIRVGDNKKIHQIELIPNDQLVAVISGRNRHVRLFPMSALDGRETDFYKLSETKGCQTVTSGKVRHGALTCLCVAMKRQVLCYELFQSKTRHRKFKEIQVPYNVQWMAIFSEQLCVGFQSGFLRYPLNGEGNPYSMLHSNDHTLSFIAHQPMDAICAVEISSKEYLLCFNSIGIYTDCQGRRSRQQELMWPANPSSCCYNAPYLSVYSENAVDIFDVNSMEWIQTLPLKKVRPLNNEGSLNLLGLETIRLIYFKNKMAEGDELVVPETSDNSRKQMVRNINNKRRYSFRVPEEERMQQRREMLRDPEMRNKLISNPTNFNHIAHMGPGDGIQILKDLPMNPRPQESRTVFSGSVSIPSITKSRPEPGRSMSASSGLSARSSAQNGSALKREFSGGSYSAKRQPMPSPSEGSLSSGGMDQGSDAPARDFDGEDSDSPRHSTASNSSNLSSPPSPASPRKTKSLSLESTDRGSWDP
Chain of EphA3(h) (P29320 21-983): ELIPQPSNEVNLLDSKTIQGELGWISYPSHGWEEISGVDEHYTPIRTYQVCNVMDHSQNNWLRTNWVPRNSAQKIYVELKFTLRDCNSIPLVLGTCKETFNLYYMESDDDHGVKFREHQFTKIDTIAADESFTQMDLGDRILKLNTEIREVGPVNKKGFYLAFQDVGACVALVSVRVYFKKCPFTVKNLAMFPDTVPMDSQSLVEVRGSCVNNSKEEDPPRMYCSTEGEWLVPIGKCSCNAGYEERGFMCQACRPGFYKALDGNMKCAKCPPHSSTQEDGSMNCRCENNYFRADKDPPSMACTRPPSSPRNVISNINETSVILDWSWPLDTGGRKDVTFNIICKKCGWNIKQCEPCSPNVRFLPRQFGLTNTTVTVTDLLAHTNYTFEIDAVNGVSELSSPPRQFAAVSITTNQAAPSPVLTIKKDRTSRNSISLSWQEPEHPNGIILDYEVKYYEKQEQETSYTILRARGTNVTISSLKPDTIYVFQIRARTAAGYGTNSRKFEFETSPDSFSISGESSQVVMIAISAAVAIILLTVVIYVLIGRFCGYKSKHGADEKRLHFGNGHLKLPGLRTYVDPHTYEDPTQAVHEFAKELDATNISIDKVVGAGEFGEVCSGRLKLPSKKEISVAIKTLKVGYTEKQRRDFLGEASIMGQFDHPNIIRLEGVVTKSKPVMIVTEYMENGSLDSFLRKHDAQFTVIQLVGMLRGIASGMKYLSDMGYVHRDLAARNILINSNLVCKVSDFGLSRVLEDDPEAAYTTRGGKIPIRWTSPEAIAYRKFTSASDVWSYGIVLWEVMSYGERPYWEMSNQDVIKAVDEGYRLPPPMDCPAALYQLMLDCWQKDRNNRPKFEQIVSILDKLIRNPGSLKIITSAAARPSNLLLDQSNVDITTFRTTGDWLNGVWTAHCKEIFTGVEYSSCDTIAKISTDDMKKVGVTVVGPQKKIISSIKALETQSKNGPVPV
Chain of BrSK1(h) (Q8TDC3 whole entry): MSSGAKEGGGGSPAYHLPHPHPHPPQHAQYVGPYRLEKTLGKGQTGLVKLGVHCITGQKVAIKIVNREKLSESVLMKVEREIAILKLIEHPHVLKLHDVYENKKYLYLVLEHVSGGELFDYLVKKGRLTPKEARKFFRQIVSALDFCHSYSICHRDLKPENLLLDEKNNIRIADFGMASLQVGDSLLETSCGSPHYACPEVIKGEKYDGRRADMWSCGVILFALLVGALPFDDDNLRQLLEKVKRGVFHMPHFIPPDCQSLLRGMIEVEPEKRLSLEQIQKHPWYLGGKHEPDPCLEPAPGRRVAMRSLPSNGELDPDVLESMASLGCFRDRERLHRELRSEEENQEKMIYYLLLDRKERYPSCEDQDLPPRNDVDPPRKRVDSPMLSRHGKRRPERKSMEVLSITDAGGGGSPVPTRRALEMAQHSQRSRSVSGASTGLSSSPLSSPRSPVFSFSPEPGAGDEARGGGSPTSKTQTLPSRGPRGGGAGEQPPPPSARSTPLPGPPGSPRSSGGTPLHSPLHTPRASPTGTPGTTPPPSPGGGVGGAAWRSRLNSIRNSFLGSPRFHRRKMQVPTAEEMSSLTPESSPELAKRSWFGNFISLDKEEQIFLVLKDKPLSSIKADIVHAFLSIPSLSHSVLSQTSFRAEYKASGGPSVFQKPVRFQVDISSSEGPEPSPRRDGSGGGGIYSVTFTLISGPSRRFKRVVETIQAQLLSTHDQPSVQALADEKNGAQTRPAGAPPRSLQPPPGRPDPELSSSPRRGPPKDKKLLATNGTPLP
Chain of HIPK3(h) (Q9H422 whole entry): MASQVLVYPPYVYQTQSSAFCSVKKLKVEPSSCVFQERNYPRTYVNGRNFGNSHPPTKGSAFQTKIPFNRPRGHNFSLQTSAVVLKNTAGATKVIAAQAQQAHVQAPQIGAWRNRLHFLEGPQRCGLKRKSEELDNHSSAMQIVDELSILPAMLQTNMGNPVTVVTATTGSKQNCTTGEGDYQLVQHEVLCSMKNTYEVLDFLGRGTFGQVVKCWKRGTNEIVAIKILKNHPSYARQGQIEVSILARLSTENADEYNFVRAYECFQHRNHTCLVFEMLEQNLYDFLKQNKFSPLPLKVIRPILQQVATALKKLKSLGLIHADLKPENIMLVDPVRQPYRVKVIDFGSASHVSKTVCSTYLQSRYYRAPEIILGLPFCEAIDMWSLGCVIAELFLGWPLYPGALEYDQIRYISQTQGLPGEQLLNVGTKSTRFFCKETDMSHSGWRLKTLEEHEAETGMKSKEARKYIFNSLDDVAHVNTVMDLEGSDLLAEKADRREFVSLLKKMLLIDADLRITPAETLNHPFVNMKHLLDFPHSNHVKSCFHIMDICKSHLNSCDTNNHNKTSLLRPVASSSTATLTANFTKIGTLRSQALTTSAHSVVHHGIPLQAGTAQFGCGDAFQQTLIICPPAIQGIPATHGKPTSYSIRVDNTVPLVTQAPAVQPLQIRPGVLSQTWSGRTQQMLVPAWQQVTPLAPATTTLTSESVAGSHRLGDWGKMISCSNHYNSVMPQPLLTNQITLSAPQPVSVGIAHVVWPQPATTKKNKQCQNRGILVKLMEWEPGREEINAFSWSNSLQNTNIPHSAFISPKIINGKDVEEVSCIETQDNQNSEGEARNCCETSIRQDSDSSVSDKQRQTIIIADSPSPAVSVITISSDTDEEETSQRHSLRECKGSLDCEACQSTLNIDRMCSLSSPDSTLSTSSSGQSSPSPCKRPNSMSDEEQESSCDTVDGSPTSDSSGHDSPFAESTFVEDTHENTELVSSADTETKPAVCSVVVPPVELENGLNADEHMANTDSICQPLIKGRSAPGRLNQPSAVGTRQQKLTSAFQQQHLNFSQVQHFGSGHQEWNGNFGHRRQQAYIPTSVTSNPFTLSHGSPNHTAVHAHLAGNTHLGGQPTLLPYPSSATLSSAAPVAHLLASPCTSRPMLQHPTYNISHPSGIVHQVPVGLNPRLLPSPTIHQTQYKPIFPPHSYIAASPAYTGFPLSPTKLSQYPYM
Chain of JNK2α2(h) (P45984 whole entry): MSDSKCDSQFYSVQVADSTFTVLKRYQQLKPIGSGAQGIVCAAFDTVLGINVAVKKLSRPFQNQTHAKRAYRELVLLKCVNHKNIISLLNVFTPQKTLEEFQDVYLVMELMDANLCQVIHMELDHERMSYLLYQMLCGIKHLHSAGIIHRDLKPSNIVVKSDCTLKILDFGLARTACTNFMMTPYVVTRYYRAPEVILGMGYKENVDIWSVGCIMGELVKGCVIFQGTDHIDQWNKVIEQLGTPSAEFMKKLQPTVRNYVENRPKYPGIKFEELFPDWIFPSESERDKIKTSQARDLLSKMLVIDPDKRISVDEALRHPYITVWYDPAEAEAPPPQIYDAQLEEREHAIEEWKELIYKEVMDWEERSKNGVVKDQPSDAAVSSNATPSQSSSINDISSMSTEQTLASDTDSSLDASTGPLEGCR

inhibition at 1 µM [1]: 3%
inhibition at 1 µM [2]: 4%
inhibition at 1 µM [3]: 13%
inhibition at 1 µM [4]: 13%
inhibition at 1 µM [5]: 39%
inhibition at 1 µM [6]: 8%
inhibition at 1 µM [7]: 6%
inhibition at 1 µM [8]: 0%
inhibition at 1 µM [9]: -4%
inhibition at 1 µM [10]: 22%
inhibition at 1 µM [11]: 30%
inhibition at 1 µM [12]: -6%
inhibition at 1 µM [13]: 23%
inhibition at 1 µM [14]: 4%
inhibition at 1 µM [15]: 9%
inhibition at 1 µM [16]: 62%
inhibition at 1 µM [17]: 3%
inhibition at 1 µM [18]: 0%
inhibition at 1 µM [19]: 0%
inhibition at 1 µM [20]: -2%
inhibition at 1 µM [21]: 2%
inhibition at 1 µM [22]: -4%
inhibition at 1 µM [23]: -2%
inhibition at 1 µM [24]: 0%
inhibition at 1 µM [25]: 16%
inhibition at 1 µM [26]: -6%
inhibition at 1 µM [27]: 14%
inhibition at 1 µM [28]: 6%
inhibition at 1 µM [29]: 10%
inhibition at 1 µM [30]: 7%
inhibition at 1 µM [31]: 27%
inhibition at 1 µM [32]: -5%
inhibition at 1 µM [33]: 10%
inhibition at 1 µM [34]: 4%
inhibition at 1 µM [35]: -4%
inhibition at 1 µM [36]: 3%
inhibition at 1 µM [37]: -9%
inhibition at 1 µM [38]: -4%
inhibition at 1 µM [39]: -2%
inhibition at 1 µM [40]: 56%
inhibition at 1 µM [41]: -18%
inhibition at 1 µM [42]: 27%
Structure (SMILES): Nc1n[nH]c2ccc(-c3ccnc4[nH]c(-c5cccc(OCc6ccccc6)c5)cc34)cc12 [Compound 5r [SU1261]]

inhibition at 1 µM [1]: 6%
inhibition at 1 µM [2]: 36%
inhibition at 1 µM [3]: 41%
inhibition at 1 µM [4]: 48%
inhibition at 1 µM [5]: 79%
inhibition at 1 µM [6]: 25%
inhibition at 1 µM [7]: 10%
inhibition at 1 µM [8]: -16%
inhibition at 1 µM [9]: 8%
inhibition at 1 µM [10]: 38%
inhibition at 1 µM [11]: 44%
inhibition at 1 µM [12]: -2%
inhibition at 1 µM [13]: 18%
inhibition at 1 µM [14]: -1%
inhibition at 1 µM [15]: 41%
inhibition at 1 µM [16]: 29%
inhibition at 1 µM [17]: 11%
inhibition at 1 µM [18]: 28%
inhibition at 1 µM [19]: -14%
inhibition at 1 µM [20]: -2%
inhibition at 1 µM [21]: 3%
inhibition at 1 µM [22]: -16%
inhibition at 1 µM [23]: 1%
inhibition at 1 µM [24]: 19%
inhibition at 1 µM [25]: 65%
inhibition at 1 µM [26]: 22%
inhibition at 1 µM [27]: 57%
inhibition at 1 µM [28]: 26%
inhibition at 1 µM [29]: 30%
inhibition at 1 µM [30]: 53%
inhibition at 1 µM [31]: 43%
inhibition at 1 µM [32]: 45%
inhibition at 1 µM [33]: 20%
inhibition at 1 µM [34]: 17%
inhibition at 1 µM [35]: 5%
inhibition at 1 µM [36]: 5%
inhibition at 1 µM [37]: 14%
inhibition at 1 µM [38]: 37%
inhibition at 1 µM [39]: -5%
inhibition at 1 µM [40]: 79%
inhibition at 1 µM [41]: -22%
inhibition at 1 µM [42]: 53%
Structure (SMILES): Nc1n[nH]c2ccc(-c3ccnc4[nH]c(-c5ccccc5)cc34)cc12 [Compound 4]
